Where a name gives a salt, the structure may show the parent alone.
How the values were obtained:
[1] = test system: human alveolar tumour cell line A549; assay: [methyl-^3 H]thymidine uptake / cytotoxicity in human alveolar tumour cell line A549; format: cell-based; conditions: for IC50: Homo sapiens, 96 h, A549, four days incubation, then [methyl-^3 H]thymidine four hours, read-out: IC50 (drug concentrations producing 50% cytotoxicity); for cytotoxic effect on A549 cells compared to 2,3'-O-cyclocytidine hydrochloride: at relatively low concentrations
Text: In this Example, there is described an in vitro comparison between 2,3'-O-cyclocytidine hydrochloride, 5-bromo-2,3'-O-cyclocytidine hydrochloride, and 5-iodo-2,3'-O-cyclocytidine hydrochloride. The specific in vitro test involved assessing the toxicity of the compounds in a particular cell line by conducting [methyl-^3 H]thymidine uptake experiments.
The particular cell line used in the Example was human alveolar tumour cell line A549 (hereinafter referred to as A549) obtained from The American Type Culture Collection (ATCC) as CCL 185 (lung carcinoma, human).
Cultures were inoculated at 1×10^5 cells/60 mm dish, incubated for four days in the presence of various concentrations (see FIGURE) of 2,3'-O-cyclocytidine hydrochloride (.largecircle.), 5-bromo-2,3'-O-cyclocytidine hydrochloride and 5-iodo-2,3'-O-cyclocytidine hydrochloride. Thereafter, the cells were incubated with a medium supplemented with [methyl-^3 H]thymidine (82 Cl/mmol; 5 μCl/ml) for four hours and lysed, and the amount of radioactivity incorporated into genomic DNA was measured. The IC50 values (drug concentrations producing 50% cytotoxicity) for each compound illustrated in the FIGURE are reported in Table 10. As will be apparent from […]

A375 melanoma cells = assay: In vivo antitumor activity, A375 melanoma engrafted s.c. in SCID mice; conditions: for Growth Delay: calculated from tumor volume curve; for Tumor Weight (% Inhibition): tumor weight at day 20
Procedure: (§1) In vivo studies were conducted comparing the effectiveness of 5-bromo-2,3'-O-cyclocytidine hydrochloride (5-Br-cycloC) with one or more of 2,3'-O-cyclocytidine hydrochloride (cycloC), 1 -β-D-arabinofuranosylcytosine (Ara-C), Adfiamycin (ADR) and Dacarbazine (DTIC).
(§2) More specifically, the antitumor activity of these compounds were evaluated in two human tumor cell lines engrafted in severe combined immunodeficient (SCID) mice. The particular cell lines used in this Example were A549 (described above in Example 5) and melanoma A375 cells obtained from The American Type Culture Collection (ATCC) (hereinafter referred to as A375).

A549 = assay: In vivo antitumor activity, A549 engrafted s.c. in SCID mice; conditions: for Growth Delay: calculated from tumor volume curve; for Tumor Weight (% Inhibition): tumor weight at day 20
Procedure: as §1, §2

[2] = MTD in non-tumor bearing SCID mice; conditions: mouse, in vivo, ip, i.p. daily×7
[3] = Experiment 1, 1000 mg/kg i.p. daily × 7
[4] = Experiment 1, 60 mg/kg i.p. daily × 7
[5] = Experiment 2, 60 mg/kg i.p. daily ×
[6] = Experiment 2, 60 mg/kg i.p. daily × 7
[7] = Experiment 1, 250 mg/kg i.p. daily × 7
[8] = Experiment 1, 250 mg/kg i.p. every other day × 7
[9] = Experiment 1, 200 mg/kg i.p. daily × 7
[10] = Experiment 2, 250 mg/kg i.p. daily × 7
[11] = Experiment 2, 300 mg/kg i.p. × 1
[12] = Experiment 3, 250 mg/kg i.p. daily × 7
[13] = Experiment 3, 250 mg/kg i.p. every other day × 7
[14] = Experiment 4, 250 mg/kg i.p. every other day × 7
[15] = Experiment 3, 120 mg/kg i.p. every other day × 7
[16] = Experiment 4, 120 mg/kg i.p. every other day × 7

SMILES: N=c1ccn2c(n1)O[C@@H]1[C@@H](O)[C@H]2O[C@@H]1CO [2,3'-O-Cyclocytidine hydrochloride, 2,3'-O-cyclocytidine hydrochloride, reference compound]
- IC50 [1]: 50 µM
- Growth Delay (A375 melanoma cells; [3]): 2 days
- Tumor Weight (% Inhibition) (A375 melanoma cells; [3]): +6%
- Survival Rate (%) (A375 melanoma cells; in vivo, ip, 1000 mg/kg): 100%
- Weight Loss (% Decrease) (A375 melanoma cells; in vivo, ip, 1000 mg/kg): 0%

SMILES: Nc1ccn([C@@H]2O[C@H](CO)[C@@H](O)[C@@H]2O)c(=O)n1 [Ara-C, 1 -β-D-arabinofuranosylcytosine]
- survival rate (A549; A549, Table 12): ≤ 33.3%
- Survival Rate (%) (A549; [4]): 33.3%
- Growth Delay (A549; [4]): 7 days
- Tumor Weight (% Inhibition) (A549; [4]): 38%
- Survival Rate (%) (A549; [5]): 33.3%
- Growth Delay (A549; [5]): 11 days
- Tumor Weight (% Inhibition) (A549; [5]): 47%
- weight loss (A549; in vivo): weight loss
- Survival Rate (%) (A375 melanoma cells; [4]): 100%
- Growth Delay (A375 melanoma cells; [4]): 10 days
- Tumor Weight (% Inhibition) (A375 melanoma cells; [4]): 45%
- Survival Rate (%) (A375 melanoma cells; [6]): 100%
- Growth Delay (A375 melanoma cells; [6]): 11 days
- Tumor Weight (% Inhibition) (A375 melanoma cells; [6]): 39%

SMILES: N=c1nc2n(cc1I)[C@@H]1O[C@H](CO)[C@H](O2)[C@H]1O [5-Iodo-2,3'-O-cyclocytidine hydrochloride]
- IC50 [1]: 10 µM
- cytotoxic effect on A549 cells compared to 2,3'-O-cyclocytidine hydrochloride [1]: significantly superior cytotoxic effect

SMILES: N=c1nc2n(cc1Br)[C@@H]1O[C@H](CO)[C@H](O2)[C@H]1O [5-bromo-2,3'-O-cyclocytidine hydrochloride]
- decrease of tumor growth (A549; 250 mg/kg daily×7, over a 20 day period): significantly decreased tumor growth
- Growth Delay (A549; [7]): 10 days
- Tumor Weight (% Inhibition) (A549; [7]): 43%
- Growth Delay (A549; [8]): 6 days
- Tumor Weight (% Inhibition) (A549; [8]): 12%
- survival rate (A549; in vivo): 100%
- weight loss (A549; in vivo): no weight loss (or an actual weight in one stance)
- Survival Rate (%) (A549; in vivo, ip, 250 mg/kg): 100%
- IC50 [1]: 40 µM
- cytotoxic effect on A549 cells compared to 2,3'-O-cyclocytidine hydrochloride [1]: significantly superior cytotoxic effect
- Growth Delay (A375 melanoma cells; [9]): 10 days
- Tumor Weight (% Inhibition) (A375 melanoma cells; [9]): 26%
- Growth Delay (A375 melanoma cells; [10]): 10 days
- Tumor Weight (% Inhibition) (A375 melanoma cells; [10]): 43%
- Growth Delay (A375 melanoma cells; [11]): 11 days
- Tumor Weight (% Inhibition) (A375 melanoma cells; [11]): 45%
- Growth Delay (A375 melanoma cells; [12]): 9 days
- Tumor Weight (% Inhibition) (A375 melanoma cells; [12]): 38%
- Growth Delay (A375 melanoma cells; [13]): 12 days
- Tumor Weight (% Inhibition) (A375 melanoma cells; [13]): 43%
- Growth Delay (A375 melanoma cells; [14]): 11 days
- Tumor Weight (% Inhibition) (A375 melanoma cells; [14]): 48%
- weight loss during therapy (A375 melanoma cells; in vivo): no weight loss (or in two instances an actual weight gain)
- Survival Rate (%) (A375 melanoma cells; in vivo, ip, 200 mg/kg): 100%
- Weight Loss (% Decrease) (A375 melanoma cells; in vivo, ip, 200 mg/kg): 0%
- Survival Rate (%) (A375 melanoma cells; in vivo, ip, 300 mg/kg): 33.3%
- Weight Loss (% Decrease) (A375 melanoma cells; in vivo, ip, 300 mg/kg): 0%
- effectiveness in effecting tumor growth delay (A375 melanoma cells; treatment of A375, Table 11): as effective in effecting tumor growth delay as 1-β-D-arabinofuranosylcytosine and dacarbazine, and much more effective than 2,3'-O-cyclocytidine hydrochloride
- MTD [2]: 250 mg/kg

SMILES: COc1cccc2c1C(=O)c1c(O)c3c(c(O)c1C2=O)C[C@@](O)(C(=O)CO)C[C@@H]3O[C@H]1C[C@H](N)[C@H](O)[C@H](C)O1 [ADR, Adfiamycin]
- survival rate (A549; A549, Table 12): ≤ 33.3%
- Survival Rate (%) (A549; Experiment 1, 7 mg/kg i.p. × 1): 16.7%
- Growth Delay (A549; Experiment 1, 7 mg/kg i.p. × 1): 5 days
- Tumor Weight (% Inhibition) (A549; Experiment 1, 7 mg/kg i.p. × 1): 6%
- Survival Rate (%) (A549; Experiment 2, 5 mg/kg i.p. × 1): 16.7%
- Growth Delay (A549; Experiment 2, 5 mg/kg i.p. × 1): 6 days
- Tumor Weight (% Inhibition) (A549; Experiment 2, 5 mg/kg i.p. × 1): 24%
- weight loss (A549; in vivo): weight loss
- Weight Loss (% Decrease) (A549; in vivo, ip, 5 mg/kg): 32%
- Weight Loss (% Decrease) (A549; in vivo, ip, 7 mg/kg): 16%

SMILES: CN(C)/N=N/c1[nH]cnc1C(N)=O [DTIC, Dacarbazine, reference compound]
- Growth Delay (A375 melanoma cells; [15]): 12 days
- Tumor Weight (% Inhibition) (A375 melanoma cells; [15]): 53%
- Growth Delay (A375 melanoma cells; [16]): 13 days
- Tumor Weight (% Inhibition) (A375 melanoma cells; [16]): 59%

From US5527782A, “5-halo-2,3'-O-cyclocytidines” (ACIC (Canada) Inc., priority 1990, dated 1996)
